What was measured:
GST-AvrBsT [1] = biological target: T1, GST-AvrBsT (Xanthomonas euvesicatoria, UniProt A0ABS8LK00); format: biochemical
GST-AvrBsT [2] = biological target: T1, GST-AvrBsT; format: biochemical; remark: listed apart in the source

SMILES | 14C autoacetylation, SDS-PAGE autoradiography (GST-AvrBsT [1]) | 14C autoacetylation with and without IP6, autoradiography (GST-AvrBsT [2])
CC(=O)SCCNC(=O)CCNC(=O)[C@H](O)C(C)(C)COP(=O)(O)OP(=O)(O)OC[C@H]1O[C@@H](n2cnc3c(N)ncnc32)[C@H](O)[C@@H]1OP(=O)(O)O [14C-acetyl-coenzyme A] | Wild-type GST-AvrBsT activity resulted in auto-acetylation of the enzyme and trans-acetylation of GST-ACIP1 | 
O=P(O)(O)O[C@H]1[C@H](OP(=O)(O)O)[C@@H](OP(=O)(O)O)[C@H](OP(=O)(O)O)[C@@H](OP(=O)(O)O)[C@H]1OP(=O)(O)O [inositol hexakisphosphate] |  | Auto-acetylation of GST-AvrBsT was detected in the presence of IP6 but not its absence
